Measurements as given in publication PMC8658016, “Identification of New Compounds with Anticonvulsant and Antinociceptive Properties in a Group of 3-substituted (2,5-dioxo-pyrrolidin-1-yl)(phenyl)-Acetamides” (International Journal of Molecular Sciences, 2021).
Where two headings read alike, the source gives them in different places.

Tests used:
[1] = biological target: T1, CYP2D6 (Homo sapiens, UniProt P10635); test: CYP2D6 P450-Glo luminescent assay; assay type: in vitro ADME; conditions: 1 and 10 µM
T1 construct: purchased Promega (Madison, WI, USA)

[2] = Pharmacokinetic study in mice, serum and brain (LC-MS/MS); assay type: in vivo, mouse; conditions: for k el: non-compartmental analysis, read-out: λz (converted)
Procedure: The amount of the target compound in the serum and brain was determined by an LC-MS/MS system. […] The compound also very quickly penetrated to the murine brain and reached the maximum concentration in this organ at 15 min. However, the brain concentrations were lower than those in the serum. The compound was slowly eliminated from the body as its concentrations were still measurable up to 8 h. The terminal slope reflecting the elimination rate from the brain was similar to that observed in the serum. Male CD-1 mice weighting 28–33 g housed in conditions of the constant temperature with a 12:12 h light–dark cycle with free access to food and water were used in this study. The investigated compound was dissolved in sterile water for injection (Polpharma, Poland) and administered i.p. at a dose of 40 mg/kg. The mice were sacrificed by decapitation under isoflurane anesthesia. Blood samples were collected at 5, 15, 30, 60, 120, 240, and 480 min after dosing and brains were harvested at the same time points. Blood was allowed to clot at room temperature for 20 min and serum was separated by centrifugation at 3000 rpm for 10 min (Eppendorf MiniSpin centrifuge, Germany). The samples were stored at −80 °C until analysis. All animal procedures were approved by the First Ethical Committee on Animal Experimentation in Krakow, Poland (no. 270/2019). Concentrations of compound 14 in mouse brains and serum were measured by liquid chromatography tandem mass spectrometry (LC-MS/MS) method using SCIEX QTRAP 4500 triple quadrupole mass spectrometer coupled to Excion LC AC HPLC system (both from Danaher Corporation, Washington, DC, USA). Chromatographic separation was carried out on the Hypersil GoldTM C18 analytical column (2.1 × 50 mm, 3 µm, Thermo Scientific, USA) with the oven temperature set at 40 °C. […] The remaining time of elution was set at 95% B. The whole HPLC operation lasted 10 min. Electrospray ionization (ESI) in the positive ion mode was used for ion production. The tandem mass spectrometer was operated at unit resolution in the selected reaction monitoring mode (SRM), monitoring the transition of the protonated molecular ions m/z 489 to 132 (CE = 65 eV) and m/z 489 to 231 (CE = 29 eV) for compound 14 (first pair was used as a quantifier and the second for the identity verification qualifier) and m/z 436 to 235 (CE = 42 eV) for an internal standard (valsartan). The mass spectrometric conditions were optimized by continuous infusion of the standard solution at the rate of 7 μL/min using a Harvard infusion pump. The ion source temperature was maintained at 450 °C and the ion spray voltage was set at 5500 V. The curtain gas (CUR) was set at 40 psi and the collision gas (CAD) at medium. Data acquisition and processing were accomplished using the Analyst version 1.7 software. The calibration curves were constructed by plotting the ratio of the peak area of the studied compound to internal standard (IS) versus drug concentration and generated by weighted (1/x·x) linear regression analysis. The validated quantitation ranges for this method were within the expected concentration ranges, namely, from 0.1 to 20 µg/mL of serum and from 0.05 to 10 µg/g of brain tissue with accuracy from 93.73 to 104.29% and from 88.33 to 107% for serum and brain, respectively. No significant matrix effect was observed and there were no stability-related problems during the routine analysis of the samples. The brains were homogenized in distilled water at the ratio of 1:4 (w/v) with a tissue homogenizer LabGEN 125 (Cole-Parmer, Vernon Hills, IL, USA). […] Serum supernatant was additionally diluted 10 times with the deproteinization solution. Then, brain or serum supernatants were transferred into the autosampler vials. The autosampler temperature was maintained at 15 °C and a sample volume of 2 μL was injected into the LC-MS/MS system.

[3] = biological target: T2, CYP3A4 (Homo sapiens, UniProt P08684); test: CYP3A4 P450-Glo luminescent assay; assay type: in vitro ADME
T2 construct: purchased Promega (Madison, WI, USA)

[4] = male, CD-1, mouse, ip, brain, mice, 40 mg/kg i.p.
[5] = male, CD-1, mouse, ip, serum, mice, 40 mg/kg i.p.

T2 sequence (P08684 whole entry): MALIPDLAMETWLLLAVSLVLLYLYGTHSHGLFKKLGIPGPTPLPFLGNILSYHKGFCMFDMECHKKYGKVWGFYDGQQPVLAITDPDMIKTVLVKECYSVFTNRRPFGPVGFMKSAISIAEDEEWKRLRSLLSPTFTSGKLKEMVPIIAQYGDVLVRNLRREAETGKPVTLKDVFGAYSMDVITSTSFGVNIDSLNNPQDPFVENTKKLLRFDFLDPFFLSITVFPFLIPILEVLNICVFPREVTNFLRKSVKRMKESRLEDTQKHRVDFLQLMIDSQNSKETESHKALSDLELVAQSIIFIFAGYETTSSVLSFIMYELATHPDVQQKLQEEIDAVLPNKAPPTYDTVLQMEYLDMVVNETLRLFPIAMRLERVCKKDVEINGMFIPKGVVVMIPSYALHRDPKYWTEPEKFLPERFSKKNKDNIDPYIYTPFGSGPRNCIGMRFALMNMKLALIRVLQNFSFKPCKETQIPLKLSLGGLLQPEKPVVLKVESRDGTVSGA
T1 sequence (P10635 whole entry): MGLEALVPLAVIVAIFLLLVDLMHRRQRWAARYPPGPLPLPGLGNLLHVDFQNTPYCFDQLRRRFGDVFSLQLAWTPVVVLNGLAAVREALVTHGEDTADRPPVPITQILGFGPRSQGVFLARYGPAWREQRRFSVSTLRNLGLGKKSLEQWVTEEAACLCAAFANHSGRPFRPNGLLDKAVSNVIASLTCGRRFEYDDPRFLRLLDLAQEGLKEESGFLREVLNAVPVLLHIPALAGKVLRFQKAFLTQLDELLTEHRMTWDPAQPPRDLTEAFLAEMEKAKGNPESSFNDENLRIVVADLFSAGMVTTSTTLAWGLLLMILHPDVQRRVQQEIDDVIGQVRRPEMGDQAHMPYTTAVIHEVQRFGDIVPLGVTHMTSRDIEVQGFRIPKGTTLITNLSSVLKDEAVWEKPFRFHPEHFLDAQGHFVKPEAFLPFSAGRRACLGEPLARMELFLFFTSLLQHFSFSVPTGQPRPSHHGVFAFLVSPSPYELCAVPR

With `CN(C)C1CC(=O)N(C(C(=O)N2CCN(c3cccc(C(F)(F)F)c3)CC2)c2ccccc2)C1=O.Cl` (stereo not drawn) [Compound 14, 3-(Dimethylamino)-1-(2-oxo-1-phenyl-2-(4-(3-(trifluoromethyl)phenyl)-piperazin-1-yl)ethyl)pyrrolidine-2,5-dione hydrochloride] the “effect on CYP2D6 activity” value [1] was “significant activation”, the “AUC0-∞” value ([2]; brain, mice, 40 mg/kg i.p.) was 413.17 µg⋅min/mL(g) and the Cmax ([2]; brain, mice, 40 mg/kg i.p.) was 5.32 µg/mL(g). The t0.5λz ([2]; brain, mice, 40 mg/kg i.p.) was 66.14 min, the Kp ([2]; male, CD-1, mouse, brain and serum, ip, mice, 40 mg/kg i.p., read-out: brain-to-serum AUC ratio) was no more than 0.3 and the concentration at 30 min ([2]; male, CD-1, mouse, brain, ip, 40 mg/kg, mice i.p., calculated for the free base, read-out: C30 min. in the brain) was 7.2 µM. For the same compound, the Cmax ([2]; male, CD-1, mouse, brain, ip, 40 mg/kg, mice i.p., calculated for the free base, read-out: Cmax in the brain) was 10.9 µM, the concentration at 30 min ([2]; male, CD-1, mouse, brain, ip, mice, 40 mg/kg i.p., read-out: brain level 30 min post-dose) was 3500 ± 990 ng/g and the MRT [2, 4] was 89.2 min. The Tmax [2, 4] was 15 min, the k el [2, 4] was 0.000183 s⁻¹ and the CL/F [2, 5] was 27 mL/min/kg. For the same compound, the MRT [2, 5] was 93.5 min, the Tmax [2, 5] was 5 min and the k el [2, 5] was 0.000183 s⁻¹. For the same compound, the concentration at 30 min ([2]; male, CD-1, mouse, serum, ip, 40 mg/kg, mice i.p., calculated for the free base, read-out: C30 min. in serum) was 24.3 µM, the Cmax ([2]; male, CD-1, mouse, serum, ip, 40 mg/kg, mice i.p., calculated for the free base, read-out: Cmax in serum) was 41.1 µM and the “brain concentration 15 min after administration (highest)” value ([2]; mice, 40 mg/kg i.p.) was 5.32 ± 0.54 µg/g tissue. For the same compound, the “AUC0-∞” value ([2]; serum, mice, 40 mg/kg i.p.) was 1451.22 µg⋅min/mL(g), the Cmax ([2]; serum, mice, 40 mg/kg i.p.) was 20.06 µg/mL(g) and the V/F ([2]; serum, mice, 40 mg/kg i.p.) was 2.57 L/kg. For the same compound, the t0.5λz ([2]; serum, mice, 40 mg/kg i.p.) was 64.65 min, the “CYP3A4 activity in the presence of the compound” value ([3]; 10 µM) was “higher than 50%” and the “CYP3A4 inhibition, classification” value ([3]; significant inhibition only at 10 µM and 25 µM (p < 0.0001)) was “moderate inhibitor”.
